Assay results: US9062013B2, “Positive allosteric modulators of the α7 nicotinic acetylcholine receptor and uses thereof” (Bionomics Limited, priority 2011, dated 2015)

Key:
[1] = test system: scopolamine treated mice; assay: T-maze Continuous Alternation Task (T-CAT), scopolamine-induced cognitive impairment; format: in vivo; settings: test compounds administered 60 min prior, scopolamine 20 min prior to the T-maze session
Source text: Scopolamine is a muscarinic receptor antagonist which is used as a standard/reference drug for inducing cognitive deficits in healthy humans and animals.
The T-maze Continuous Alternation Task (T-CAT) measures spontaneous alternation, which is the innate tendency of mice to alternate free choices in a T-maze over a series of successive runs. This sequential procedure relies on working memory and is sensitive to various pharmacological manipulations affecting memory processes.
The T-maze apparatus is made of gray Plexiglas with a main stem (55 cm long×10 cm wide×25 cm high) and two arms (30 cm long×10 cm wide×25 cm high) positioned at 90 degree angle relative to the main stem. A start box (15 cm long×10 cm wide) is separated from the main stem by a sliding door. Sliding doors are also provided to close specific arms during the forced-choice alternation task.
The experimental protocol consists of one single session, which starts with 1 “forced-choice” trial, followed by 14 “free-choice” trials. In the first “forced-choice” trial, the animal is confined for 5 s in the start arm and then it is released while either the left or right goal arm is blocked by a sliding door. The animal will negotiate the maze, eventually enter the open goal arm, and return to the start position. Immediately after the return to the start position, the left or right goal door is opened and the animal is allowed to choose freely between the left and right goal arm (“free choice” trials). The animal is considered to have entered an arm when it places its four paws in the arm. A session is terminated and the animal is removed from the maze as soon as 14 free-choice trials have been performed or 10 min have elapsed, whichever event occurs first. The percentage of alternation over the 14 free-choice trials is determined for each mouse and is used as an index of working memory performance. This percentage is defined as entry in a different arm of the T-maze over successive visits (i.e., left-right-left-right, etc). Scopolamine administered 20 min prior the initiation of the 1-maze session is used to induce disruption in the spontaneous alternation of mice. Test compounds are administered 60 min prior the start of the T-maze session in order to evaluate their ability to reverse the scopolamine effect.
The apparatus is cleaned between each animal using alcohol (70°). Urine and feces are removed from the maze. During the trials, animal handling and the visibility of the operator are minimized as much as possible.

Structure (SMILES)	melting point [°C]	improvement relative to the scopolamine treated mice (spontaneous alternation) [1]
COc1ccc(Cl)cc1NC(=O)[C@@H]1[C@@H](c2ccc3c(c2)OC(F)(F)O3)C1(C)C (relative stereo) [Example 18d, trans-N-(5-Chloro-2-methoxyphenyl)-3-(2,2-difluoro-benzo[1,3]dioxol-5-yl)-2,2-dimethyl-cyclopropane carboxamide]	120 to 122	
COc1ccc(NC(=O)[C@@H]2[C@@H](c3ccccc3)C23CCCC3)c(OC)n1 (relative stereo) [Example 8a, trans-N-(2,6-dimethoxypyridin-3-yl)-2-phenylspiro[2.4]heptane-1-carboxamide]	131 to 133	
COc1ccc(Cl)cc1NC(=O)[C@@H]1[C@@H](c2ccccc2)C12CCCC2 [Example 6a, trans-N-(5-Chloro-2-methoxyphenyl)-2-phenylspirol[2.4]heptane-1-carboxamide]	133 to 135	
COc1ccc(Cl)cc1NC(=O)[C@@H]1[C@@H](c2ccc(Cl)cc2)C1(C)C (relative stereo) [Example 5a, trans-N-(5-Chloro-2-methoxyphenyl)-3-(4-chlorophenyl)-2,2-dimethylcyclopropanecarboxamide]	162 to 164	significant improvement
COc1ccc(Cl)cc1NC(=O)[C@@H]1[C@@H](c2ccc(S(N)(=O)=O)cc2)C1(C)C (relative stereo) [Example 4b, trans-N-(5-Chloro-2-methoxyphenyl)-2,2-dimethyl-3-(4-sulfamoylphenyl)cyclopropanecarboxamide]		significant improvement
COc1ccc(Cl)cc1NC(=O)[C@@H]1[C@@H](c2cccc(C)c2)C1(C)C (relative stereo) [Example 17a, trans-N-(5-Chloro-2-methoxyphenyl)-2,2-dimethyl-3-m-tolyl-cyclopropanecarboxamide]	148 to 150	
Cc1cnc(NC(=O)[C@@H]2[C@@H](c3ccccc3)C2(C)C)s1 (relative stereo) [Example 1a, 2,2-Dimethyl-trans-N-(5-methylthiazol-2-yl)-3-phenylcyclopropanecarboxamide]	132 to 135	
O=C(Nc1ccc(C(F)(F)F)cc1Cl)[C@@H]1[C@@H](c2ccccc2)C12CCCC2 (relative stereo) [Example 15a, trans-2-phenyl-N-[2-chloro-4-(trifluoromethyl)phenyl]spiro[2.4]heptane-1-carboxamide]	131 to 133	
NS(=O)(=O)c1ccc([C@@H]2[C@@H](C(=O)Nc3ccc(C(F)(F)F)cc3)C23CCCC3)cc1 (relative stereo) [Example 9b, trans-2-(4-sulfamoylphenyl)-N-(4-(trifluoromethyl)phenyl)spiro[2.4]heptane-1-carboxamide]		significant improvement
COc1ccc(Cl)cc1NC(=O)[C@@H]1[C@@H](c2ccc(S(N)(=O)=O)cc2)C12CCCC2 (relative stereo) [Example 6b, trans-N-(5-Chloro-2-methoxyphenyl)-2-(4-sulfamoylphenyl)spiro[2.4]heptane-1-carboxamide]		significant improvement
CC1(C)[C@H](C(=O)Nc2ccncc2)[C@H]1c1ccc(S(N)(=O)=O)cc1 (relative stereo) [Example 10b, 2,2-Dimethyl-trans-N-(pyridin-4-yl)-3-(4-sulfamoylphenyl)cyclopropanecarboxamide]		significant improvement
COc1cc(OC)c(NC(=O)[C@@H]2[C@@H](c3ccccc3)C2(C)C)cc1Cl (relative stereo) [Example 3a, trans-N-(5-Chloro-2,4-dimethoxyphenyl)-2,2-dimethyl-3-phenylcyclopropanecarboxamide]	160 to 162	
COc1ncccc1NC(=O)[C@@H]1[C@@H](c2ccccc2)C1(C)C (relative stereo) [Example 13a, trans-N-(2-methoxypyridin-3-yl)-2,2-dimethyl-3-phenylcyclopropanecarboxamide]	152 to 154	
Cc1cccc([C@@H]2[C@@H](C(=O)Nc3ccc(F)c(F)c3)C2(C)C)c1 (relative stereo) [Example 16d, trans-N-(3,4-Difluoro-phenyl)-2,2-dimethyl-3-m-tolyl-cyclopropanecarboxamide]	110 to 113	
CC1(C)[C@H](C(=O)Nc2cc(C(F)(F)F)n[nH]2)[C@H]1c1ccccc1 (relative stereo) [Example 2a, 2,2-Dimethyl-trans-3-phenyl-N-(3-(trifluoromethyl)-1H-pyrazol-5-yl)cyclopropanecarboxamide]	68 to 71	
O=C(Nc1ccc(C(F)(F)F)cc1)[C@@H]1[C@@H](c2ccccc2)C12CCCC2 (relative stereo) [Example 9a, trans-2-phenyl-N-(4-(trifluoromethyl)phenyl)spiro[2.4]heptane-1-carboxamide]	171 to 173	
CC1(C)[C@H](C(=O)Nc2cc(C(F)(F)F)n[nH]2)[C@H]1c1ccc(S(N)(=O)=O)cc1 (relative stereo) [Example 2b, 2,2-Dimethyl-trans-3-(4-sulfamoylphenyl)-N-(3-(trifluoromethyl)-1H-pyrazol-5-yl)cyclopropanecarboxamide]		significant improvement
COc1ccc(Cl)cc1NC(=O)[C@@H]1[C@@H](c2ccc(Br)cc2)C1(C)C (relative stereo) [Example 12c, trans-N-(5-Chloro-2-methoxyphenyl)-3-(4-bromophenyl)-2,2-dimethylcyclopropanecarboxamide]	170 to 172	
COc1ccc(Cl)cc1NC(=O)[C@@H]1[C@@H](c2ccccc2)C1(C)C (relative stereo) [Example 4a, trans-N-(5-Chloro-2-methoxyphenyl)-2,2-dimethyl-3-phenylcyclopropanecarboxamide]	155 to 157	
